{"source": "ChEMBL document CHEMBL4251601", "about": "(Eur J Med Chem, 2018)", "key": {"[1]": {"molecular_target": "Calcium/calmodulin-dependent protein kinase type II subunit beta (Homo sapiens) (UniProt Q13554)", "assay": "Inhibition of recombinant full length human His-tagged CAMK2B expressed in baculovirus expression system at 0.1 uM by Z'-Lyte assay relative to control"}, "[2]": {"molecular_target": "Mitogen-activated protein kinase 14 (Homo sapiens) (UniProt Q16539)", "assay": "Inhibition of recombinant human full length GST-tagged p38alpha expressed in Escherichia coli at 1 uM by Z'-Lyte assay relative to control"}, "[3]": {"molecular_target": "STE20-like serine/threonine-protein kinase (Homo sapiens) (UniProt Q9H2G2)", "assay": "Inhibition of recombinant human full length GST-tagged SLK expressed in baculovirus expression system at 1 uM by LanthaScreen assay relative to control"}, "[4]": {"molecular_target": "Tyrosine-protein kinase Mer (Homo sapiens) (UniProt Q12866)", "sequence (Q12866 whole entry, the tested form may be a part)": "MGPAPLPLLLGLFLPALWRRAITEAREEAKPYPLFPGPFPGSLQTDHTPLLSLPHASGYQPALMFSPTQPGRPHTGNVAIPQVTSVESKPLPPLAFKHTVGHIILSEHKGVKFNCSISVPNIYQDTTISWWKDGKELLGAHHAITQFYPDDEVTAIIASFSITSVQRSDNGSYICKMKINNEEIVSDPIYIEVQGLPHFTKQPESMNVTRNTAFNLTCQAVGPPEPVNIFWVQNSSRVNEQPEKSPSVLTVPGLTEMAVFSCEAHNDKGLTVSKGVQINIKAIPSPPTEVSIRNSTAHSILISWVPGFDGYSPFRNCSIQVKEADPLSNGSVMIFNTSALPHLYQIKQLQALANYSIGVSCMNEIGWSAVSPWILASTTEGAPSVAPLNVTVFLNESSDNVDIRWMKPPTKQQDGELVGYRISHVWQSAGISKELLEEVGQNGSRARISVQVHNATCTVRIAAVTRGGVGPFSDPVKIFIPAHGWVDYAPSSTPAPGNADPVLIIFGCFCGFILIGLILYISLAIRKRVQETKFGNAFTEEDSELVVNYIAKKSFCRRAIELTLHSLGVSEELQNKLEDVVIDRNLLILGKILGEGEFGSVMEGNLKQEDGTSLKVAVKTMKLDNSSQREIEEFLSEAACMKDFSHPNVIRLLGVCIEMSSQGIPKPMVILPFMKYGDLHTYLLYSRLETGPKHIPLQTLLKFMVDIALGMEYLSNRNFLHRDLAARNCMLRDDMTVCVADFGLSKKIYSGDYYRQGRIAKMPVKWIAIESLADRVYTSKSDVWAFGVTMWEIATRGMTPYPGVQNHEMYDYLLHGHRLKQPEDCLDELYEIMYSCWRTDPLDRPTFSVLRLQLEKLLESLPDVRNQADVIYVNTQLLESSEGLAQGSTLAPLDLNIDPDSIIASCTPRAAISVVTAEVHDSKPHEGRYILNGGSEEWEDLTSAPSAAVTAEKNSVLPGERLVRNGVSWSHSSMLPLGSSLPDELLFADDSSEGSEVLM", "assay": "Inhibition of recombinant human GST-tagged MERTK (578 to 872 residues) expressed in baculovirus expression system at 1 uM by Z'-Lyte assay relative to control"}, "[5]": {"molecular_target": "RAF proto-oncogene serine/threonine-protein kinase (Homo sapiens) (UniProt P04049)", "sequence (P04049 whole entry)": "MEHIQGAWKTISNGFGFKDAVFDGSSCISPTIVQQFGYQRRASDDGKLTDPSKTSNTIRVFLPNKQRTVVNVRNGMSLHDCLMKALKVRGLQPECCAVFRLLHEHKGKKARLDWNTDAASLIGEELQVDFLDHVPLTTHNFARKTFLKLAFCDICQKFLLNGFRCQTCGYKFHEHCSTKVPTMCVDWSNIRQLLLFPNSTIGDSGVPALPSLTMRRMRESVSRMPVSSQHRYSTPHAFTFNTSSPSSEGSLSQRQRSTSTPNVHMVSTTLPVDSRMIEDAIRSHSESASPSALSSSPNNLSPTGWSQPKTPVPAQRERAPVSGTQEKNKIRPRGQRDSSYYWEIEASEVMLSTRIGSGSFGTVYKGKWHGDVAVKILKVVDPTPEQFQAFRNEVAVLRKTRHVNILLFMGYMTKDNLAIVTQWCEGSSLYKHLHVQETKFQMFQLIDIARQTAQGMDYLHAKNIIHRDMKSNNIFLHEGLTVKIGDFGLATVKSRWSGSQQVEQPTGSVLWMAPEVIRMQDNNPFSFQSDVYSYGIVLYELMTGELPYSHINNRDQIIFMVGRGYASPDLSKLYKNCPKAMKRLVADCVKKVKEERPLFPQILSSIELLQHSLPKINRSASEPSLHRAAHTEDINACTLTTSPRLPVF", "assay": "Inhibition of RAF1 (unknown origin) at 0.1 uM by TR-FRET assay relative to control"}, "[6]": {"molecular_target": "Serine/threonine-protein kinase TAO2 (Homo sapiens) (UniProt Q9UL54)", "assay": "Inhibition of recombinant human GST-tagged TAOK2 expressed in baculovirus expression system at 0.1 uM by Z'-Lyte assay relative to control"}, "[7]": {"molecular_target": "Mitogen-activated protein kinase kinase kinase 14 (Homo sapiens, UniProt Q99558)", "assay": "Inhibition of recombinant human GST-tagged NIK expressed in baculovirus expression system using ser/thr-7 as substrate preincubated for 15 mins followed by ATP addition measured after 60 mins"}, "[8]": {"assay": "Half life in Sprague-Dawley rat at 2 mg/kg, iv administered as single dose by LC-MS/MS analysis", "assay_type": "ADME, organism-based", "details": "in vivo"}, "[9]": {"molecular_target": "Glycogen synthase kinase-3 beta (Homo sapiens) (UniProt P49841)", "sequence (P49841 whole entry, looked up)": "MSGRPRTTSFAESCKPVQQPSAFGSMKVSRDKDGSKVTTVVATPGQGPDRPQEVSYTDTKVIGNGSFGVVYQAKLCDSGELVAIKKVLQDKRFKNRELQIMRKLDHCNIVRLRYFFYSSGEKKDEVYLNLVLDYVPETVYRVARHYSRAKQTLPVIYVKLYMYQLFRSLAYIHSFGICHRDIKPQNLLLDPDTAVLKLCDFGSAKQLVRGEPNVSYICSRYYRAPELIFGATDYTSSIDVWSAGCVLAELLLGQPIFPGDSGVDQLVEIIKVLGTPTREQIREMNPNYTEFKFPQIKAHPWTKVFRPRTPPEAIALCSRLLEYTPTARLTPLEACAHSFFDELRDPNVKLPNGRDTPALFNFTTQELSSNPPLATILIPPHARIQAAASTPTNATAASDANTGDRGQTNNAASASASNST", "assay": "Inhibition of recombinant human full length His-tagged GSK3beta expressed in baculovirus expression system at 1 uM by Z'-Lyte assay relative to control"}, "[10]": {"molecular_target": "Dual specificity protein kinase CLK1 (Homo sapiens) (UniProt P49759)", "assay": "Inhibition of recombinant human GST-tagged CLK1 expressed in Escherichia coli at 0.1 uM by Z'-Lyte assay relative to control"}, "[11]": {"molecular_target": "Serine/threonine-protein kinase MARK1 (Homo sapiens) (UniProt Q9P0L2)", "assay": "Inhibition of recombinant human full length GST-tagged MARK1 expressed in baculovirus expression system at 0.1 uM by Z'-Lyte assay relative to control"}, "[12]": {"tested_on": "ALK tyrosine kinase receptor (Homo sapiens), Q9UM73 [C1156Y]", "assay": "Inhibition of recombinant N-terminal GST-tagged human ALK cytoplasmic domain (1058 to 1620 residues) C1156Y mutant expressed in baculovirus expression system at 1 uM by TR-FRET assay relative to control"}, "[13]": {"molecular_target": "Serine/threonine-protein kinase PLK1 (Homo sapiens) (UniProt P53350)", "assay": "Inhibition of recombinant human full length His-tagged PLK1 expressed in baculovirus expression system at 0.1 uM by Z'-Lyte assay relative to control"}, "[14]": {"molecular_target": "Dual specificity tyrosine-phosphorylation-regulated kinase 3 (Homo sapiens) (UniProt O43781)", "sequence (O43781 whole entry)": "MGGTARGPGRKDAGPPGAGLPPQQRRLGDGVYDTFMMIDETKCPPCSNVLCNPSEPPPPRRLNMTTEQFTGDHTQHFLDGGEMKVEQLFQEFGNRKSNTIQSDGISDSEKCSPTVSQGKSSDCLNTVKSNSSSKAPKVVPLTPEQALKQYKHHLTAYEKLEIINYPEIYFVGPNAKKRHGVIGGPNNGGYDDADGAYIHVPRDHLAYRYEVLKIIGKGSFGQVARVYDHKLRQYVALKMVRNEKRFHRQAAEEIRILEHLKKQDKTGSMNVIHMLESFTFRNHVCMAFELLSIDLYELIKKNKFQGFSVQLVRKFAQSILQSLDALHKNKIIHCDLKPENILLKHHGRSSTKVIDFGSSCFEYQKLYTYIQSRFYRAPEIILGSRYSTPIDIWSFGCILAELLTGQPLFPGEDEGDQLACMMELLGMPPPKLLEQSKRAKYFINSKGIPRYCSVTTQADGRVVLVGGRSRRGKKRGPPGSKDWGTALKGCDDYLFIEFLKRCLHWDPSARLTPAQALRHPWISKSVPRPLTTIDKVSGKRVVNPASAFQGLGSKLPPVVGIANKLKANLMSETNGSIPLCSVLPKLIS", "assay": "Inhibition of recombinant full length human GST-tagged DYRK3 expressed in baculovirus expression system at 0.1 uM by Z'-Lyte assay relative to control"}, "[15]": {"assay": "AUC (0 to 24 hrs) in Sprague-Dawley rat at 2 mg/kg, iv administered as single dose by LC-MS/MS analysis", "assay_type": "ADME, organism-based", "parameters": "dose 2 mg/kg, time < 24 hr, route intravenous", "details": "in vivo"}, "[16]": {"molecular_target": "Ephrin type-B receptor 2 (Homo sapiens) (UniProt P29323)", "sequence (P29323 whole entry, the tested form may be a part)": "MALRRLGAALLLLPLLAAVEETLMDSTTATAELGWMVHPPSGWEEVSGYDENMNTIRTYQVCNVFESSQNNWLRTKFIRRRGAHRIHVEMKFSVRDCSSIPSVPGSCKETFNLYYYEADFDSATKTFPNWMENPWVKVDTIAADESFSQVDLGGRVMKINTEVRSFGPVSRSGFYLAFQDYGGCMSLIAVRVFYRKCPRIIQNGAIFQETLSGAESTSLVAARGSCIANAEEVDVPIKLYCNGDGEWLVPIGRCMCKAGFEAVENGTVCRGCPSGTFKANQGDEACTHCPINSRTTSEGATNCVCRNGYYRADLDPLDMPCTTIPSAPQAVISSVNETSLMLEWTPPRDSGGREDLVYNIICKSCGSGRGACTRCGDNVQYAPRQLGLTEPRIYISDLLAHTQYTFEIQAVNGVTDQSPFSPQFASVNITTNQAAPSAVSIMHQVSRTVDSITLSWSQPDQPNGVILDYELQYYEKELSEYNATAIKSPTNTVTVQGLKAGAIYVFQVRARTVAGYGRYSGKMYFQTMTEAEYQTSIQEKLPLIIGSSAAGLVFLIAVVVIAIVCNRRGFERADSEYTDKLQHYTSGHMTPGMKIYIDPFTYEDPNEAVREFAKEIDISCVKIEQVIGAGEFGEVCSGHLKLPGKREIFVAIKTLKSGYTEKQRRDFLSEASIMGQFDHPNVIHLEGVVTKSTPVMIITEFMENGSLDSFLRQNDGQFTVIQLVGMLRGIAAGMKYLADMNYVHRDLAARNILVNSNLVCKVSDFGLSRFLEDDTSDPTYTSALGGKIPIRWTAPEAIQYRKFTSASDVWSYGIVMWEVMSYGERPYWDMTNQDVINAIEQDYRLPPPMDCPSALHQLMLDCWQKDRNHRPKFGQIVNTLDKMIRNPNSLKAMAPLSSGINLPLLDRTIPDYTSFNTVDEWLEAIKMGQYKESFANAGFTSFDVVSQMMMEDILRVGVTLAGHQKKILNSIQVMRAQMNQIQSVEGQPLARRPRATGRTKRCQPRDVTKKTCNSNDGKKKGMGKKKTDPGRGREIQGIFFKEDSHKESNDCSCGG", "assay": "Inhibition of recombinant human GST-tagged EPHB2 cytoplasmic domain (616 to 884 residues) expressed in baculovirus expression system at 0.1 uM by Z'-Lyte assay relative to control"}, "[17]": {"molecular_target": "Mitogen-activated protein kinase 8 (Homo sapiens) (UniProt P45983)", "assay": "Inhibition of recombinant human full length His-tagged JNK1 expressed in baculovirus expression system at 1 uM by Z'-Lyte assay relative to control"}, "[18]": {"molecular_target": "Serine/threonine-protein kinase Chk2 (Homo sapiens) (UniProt O96017)", "assay": "Inhibition of recombinant full length human His-tagged CHEK2 expressed in baculovirus expression system at 1 uM by Z'-Lyte assay relative to control"}, "[19]": {"assay": "Unbound AUC (0 to 24 hrs) in CD-1 mouse brain at 10 mg/kg, po administered as single dose by LC-MS/MS analysis", "assay_type": "ADME, organism-based", "details": "in vivo"}, "[20]": {"molecular_target": "CDK8/Cyclin C (Homo sapiens) (UniProt P49336+P24863)", "assay": "Inhibition of recombinant full length human His-tagged CDK8/Cyclin-C expressed in baculovirus expression system at 0.1 uM by LanthaScreen assay relative to control"}, "[21]": {"molecular_target": "Cyclin-dependent kinase 4/cyclin D1 (Homo sapiens) (UniProt P11802+P24385)", "assay": "Inhibition of recombinant full length human GST-tagged CDK4/Cyclin-D1 expressed in baculovirus expression system at 1 uM by TR-FRET assay relative to control"}, "[22]": {"assay": "AUC (0 to 24 hrs) in Sprague-Dawley rat at 5 mg/kg, po administered as single dose by LC-MS/MS analysis", "assay_type": "ADME, organism-based", "parameters": "time < 24 hr, dose 5 mg/kg, route oral", "details": "in vivo"}, "[23]": {"molecular_target": "RAC-gamma serine/threonine-protein kinase (Homo sapiens) (UniProt Q9Y243)", "assay": "Inhibition of recombinant full length human His-tagged AKT3 expressed in baculovirus expression system at 0.1 uM by TR-FRET assay relative to control"}, "[24]": {"molecular_target": "Protein kinase C beta type (Homo sapiens) (UniProt P05771)", "assay": "Inhibition of PKCbeta2 (unknown origin) at 0.1 uM by Z'-Lyte assay relative to control"}, "[25]": {"molecular_target": "Mitogen-activated protein kinase 1 (Homo sapiens) (UniProt P28482)", "assay": "Inhibition of recombinant human full length GST-tagged ERK2 expressed in Escherichia coli at 0.1 uM by Z'-Lyte assay relative to control"}, "[26]": {"assay": "AUC (0 to infinity) in Sprague-Dawley rat at 2 mg/kg, iv administered as single dose by LC-MS/MS analysis", "assay_type": "ADME, organism-based", "parameters": "dose 2 mg/kg, route intravenous, time infinity", "details": "Sprague-Dawley, in vivo"}, "[27]": {"molecular_target": "Vascular endothelial growth factor receptor 2 (Homo sapiens) (UniProt P35968)", "sequence (P35968 whole entry, the tested form may be a part)": "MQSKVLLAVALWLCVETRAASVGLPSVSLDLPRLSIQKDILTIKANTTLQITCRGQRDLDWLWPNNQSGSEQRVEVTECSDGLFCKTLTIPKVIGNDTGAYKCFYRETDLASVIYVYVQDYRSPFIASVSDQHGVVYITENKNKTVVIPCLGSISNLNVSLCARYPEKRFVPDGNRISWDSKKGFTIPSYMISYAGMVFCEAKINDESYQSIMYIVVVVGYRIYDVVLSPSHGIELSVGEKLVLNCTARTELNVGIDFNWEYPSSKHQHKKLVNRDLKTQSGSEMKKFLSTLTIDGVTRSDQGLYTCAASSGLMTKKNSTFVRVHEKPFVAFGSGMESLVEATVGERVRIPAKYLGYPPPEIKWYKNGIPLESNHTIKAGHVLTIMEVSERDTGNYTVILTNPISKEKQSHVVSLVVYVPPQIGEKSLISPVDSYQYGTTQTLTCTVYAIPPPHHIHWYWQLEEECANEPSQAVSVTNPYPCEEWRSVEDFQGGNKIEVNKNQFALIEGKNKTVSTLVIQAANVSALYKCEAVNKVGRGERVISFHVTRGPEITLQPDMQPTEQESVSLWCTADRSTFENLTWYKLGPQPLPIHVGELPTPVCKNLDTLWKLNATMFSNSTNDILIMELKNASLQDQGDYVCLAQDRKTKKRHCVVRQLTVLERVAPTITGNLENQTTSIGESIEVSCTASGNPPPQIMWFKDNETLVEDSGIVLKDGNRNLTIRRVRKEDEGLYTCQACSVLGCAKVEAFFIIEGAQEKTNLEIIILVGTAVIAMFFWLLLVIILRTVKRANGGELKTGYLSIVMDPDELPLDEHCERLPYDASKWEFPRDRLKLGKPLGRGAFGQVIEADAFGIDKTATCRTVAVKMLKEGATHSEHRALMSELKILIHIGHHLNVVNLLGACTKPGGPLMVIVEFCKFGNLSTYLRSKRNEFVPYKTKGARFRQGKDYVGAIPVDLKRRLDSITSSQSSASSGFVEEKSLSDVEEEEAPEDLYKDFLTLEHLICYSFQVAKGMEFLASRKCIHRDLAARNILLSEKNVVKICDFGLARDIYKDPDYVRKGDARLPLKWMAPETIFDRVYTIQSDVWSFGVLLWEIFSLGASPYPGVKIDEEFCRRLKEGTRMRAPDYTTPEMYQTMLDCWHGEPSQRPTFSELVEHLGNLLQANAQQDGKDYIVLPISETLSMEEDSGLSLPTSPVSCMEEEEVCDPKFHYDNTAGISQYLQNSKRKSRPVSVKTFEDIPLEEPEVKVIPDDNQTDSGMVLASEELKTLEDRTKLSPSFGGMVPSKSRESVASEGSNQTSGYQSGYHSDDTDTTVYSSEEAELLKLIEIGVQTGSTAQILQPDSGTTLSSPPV", "assay": "Inhibition of recombinant human His-tagged KDR cytoplasmic domain expressed in baculovirus expression system at 1 uM by Z'-Lyte assay relative to control"}, "[28]": {"molecular_target": "Receptor tyrosine-protein kinase erbB-2 (Homo sapiens) (UniProt P04626)", "assay": "Inhibition of recombinant human His-tagged ERBB2 cytoplasmic domain expressed in baculovirus expression system at 1 uM by Z'-Lyte assay relative to control"}, "[29]": {"assay": "AUC (0 to 24 hrs) in ICR mouse at 5 mg/kg, po administered as single dose by LC-MS/MS analysis", "assay_type": "ADME, organism-based", "parameters": "time < 24 hr, dose 5 mg/kg, route oral", "details": "in vivo"}, "[30]": {"molecular_target": "Tyrosine-protein kinase SYK (Homo sapiens) (UniProt P43405)", "assay": "Inhibition of recombinant human full length GST-tagged SYK expressed in baculovirus expression system at 1 uM by Z'-Lyte assay relative to control"}, "[31]": {"molecular_target": "Ephrin type-B receptor 2 (Homo sapiens) (UniProt P29323)", "assay": "Inhibition of recombinant human GST-tagged EPHB2 cytoplasmic domain (616 to 884 residues) expressed in baculovirus expression system at 1 uM by Z'-Lyte assay relative to control"}}, "data": [{"smiles": "CC1=Nc2c(F)cc(-c3nc(Nc4ccc(C5CCN(C)CC5)cn4)ncc3F)cc2C12CCCC2", "note": "[CROZBACICLIB]", "values": [{"measurement": "inhibition", "setting": "[1]", "value": 25, "unit": "%"}, {"measurement": "inhibition", "setting": "[2]", "value": -8, "unit": "%"}, {"measurement": "inhibition", "setting": "[3]", "value": 42, "unit": "%"}, {"measurement": "inhibition", "setting": "[4]", "value": 13, "unit": "%"}, {"measurement": "inhibition", "setting": "[5]", "value": -10, "unit": "%"}, {"measurement": "inhibition", "setting": "[6]", "value": 26, "unit": "%"}, {"measurement": "IC50", "setting": "[7]", "value": 45, "unit": "nM"}, {"measurement": "half-life", "setting": "[8]", "value": 7.1, "unit": "h"}, {"measurement": "inhibition", "setting": "[9]", "value": 81, "unit": "%"}, {"measurement": "inhibition", "setting": "[10]", "value": 28, "unit": "%"}, {"measurement": "inhibition", "setting": "[11]", "value": 3, "unit": "%"}, {"measurement": "inhibition", "setting": "[12]", "value": 28, "unit": "%"}, {"measurement": "inhibition", "setting": "[13]", "value": -3, "unit": "%"}, {"measurement": "inhibition", "setting": "[14]", "value": 29, "unit": "%"}, {"measurement": "AUC(0-t) at 24 h", "setting": "[15]", "value": 886, "unit": "ng·h/mL"}, {"measurement": "inhibition", "setting": "[16]", "value": -8, "unit": "%"}, {"measurement": "inhibition", "setting": "[17]", "value": 82, "unit": "%"}, {"measurement": "inhibition", "setting": "[18]", "value": 6, "unit": "%"}, {"measurement": "fAUC", "setting": "[19]", "value": 14.87, "unit": "ng·h/g"}, {"measurement": "inhibition", "setting": "[20]", "value": 43, "unit": "%"}, {"measurement": "inhibition", "setting": "[21]", "value": 107, "unit": "%"}, {"measurement": "AUC(0-t) at 24 h", "setting": "[22]", "value": 1530, "unit": "ng·h/mL"}, {"measurement": "inhibition", "setting": "[23]", "value": 10, "unit": "%"}, {"measurement": "inhibition", "setting": "[24]", "value": 3, "unit": "%"}, {"measurement": "inhibition", "setting": "[25]", "value": 0, "unit": "%"}, {"measurement": "AUC(0-inf)", "setting": "[26]", "value": 959, "unit": "ng·h/mL"}, {"measurement": "inhibition", "setting": "[27]", "value": 14, "unit": "%"}, {"measurement": "inhibition", "setting": "[28]", "value": 3, "unit": "%"}, {"measurement": "AUC(0-t) at 24 h", "setting": "[29]", "value": 2130, "unit": "ng·h/mL"}, {"measurement": "inhibition", "setting": "[30]", "value": 26, "unit": "%"}, {"measurement": "inhibition", "setting": "[31]", "value": 3, "unit": "%"}]}]}
